Source: patent US9040713B2, “Methods of managing blood sugar levels and compositions related thereto” (EMORY UNIVERSITY, priority 2010, dated 2015)
Several values for one entry are separate records, joined by “and”; a condition that tells them apart may be missing. Equal values may be shown once.

What was measured:
IGF-1R = IGF-1R phosphorylation in cells (immunoblotting); type: cell-based
Method: (§1) (A) DDN and CSN activate IR and its downstream signaling in CHO-IR cells. […] The cell lysates were analyzed by immunoblotting with anti-phospho-IR antibodies, or immunoprecipitated by PY20 and analyzed using anti-IR and anti-IRS-1, respectively. (B) DDN and CSN induce IR phosphorylation in a dose-dependent manner. CHO-IR cells were treated with the small compounds at different concentrations for 15 min, and the IR phosphorylation was monitored by immunoprecipitation and immunoblotting. (C) DDN, CSN induce IR phosphorylation in a time-dependent manner. […] (D) DDN and CSN induce IR phosphorylation and its downstream signaling in a dose-dependent manner. […] (E) DDN and CSN cannot induce IGF-1R or EGFR phosphorylation. CHO-IGF-1R or HEK293 cells were treated with EGF (100 nM), IGF-1 (100 nM), DDN (10 μM) or CSN (10 μM) for 15 min. The cell lysates were analyzed by immunoblotting with anti-pIGF-1R and anti-pEGFR.
(§2) (A) Chemical structure of 4524-E7. (B) Effect of 4524-E7 and other 1,4-naphthoquinone derivatives on IR phosphorylation in CHO-IR cells. CHO-IR cells were cultured in 96-well plates and treated with 5 μM compounds for 15 min at 37 C. Cells were lysed, and IR phosphorylations were tested by ELISA. The IR phosphorylation activities of the tested compounds were expressed as a percentage of the vehicle. (C) 4524-E7 and 1,4-naphthoquinone derivates activate IR and its downstream signaling in CHO-IR cells. […] The cell lysates were analyzed by immunoblotting with various indicated antibodies. The phosphorylated IR was immunoprecipitated using PY20 and analyzed by immunoblotting with anti-IR13 antibody. […] The phosphorylation of each receptor was determined by Western blot using specific antibodies as indicated. (E) 4524-E7 activates IR through its ICD. Upper panel: Diagram of chimaeric receptors. Lower panel: His-tagged wild-type IR, IGFR-IR, IR-IGFR, and IR-EGFR constructs were transfected into CHO cells followed vehicle or 5 μM 4524-E7 treatment for 30 min. Then the cells were lysated and the transfected receptor fused to His tag were pulled down with Ni+ beads, followed by western blot against anti-p-Tyr and anti-His. The cell lysates were tested with anti-p-Akt and anti-Akt.
(§3) A cell-based ELISA assay was developed with an IR stably transfected Chinese Hamster Ovary (CHO-IR) cell line. The cells were seeded in a 96-well plate and treated with 10 μM (15 min) compounds. The cell lysates were subjected to the sandwich ELISA using immobilized anti-phosphotyrosine antibody and anti-IR antibody. […] Among the positive hits, 1,4-naphthoquinone compounds were identified that can selectively activate IR but not IGF-1R (FIG. 1A). […] Total IR tyrosine phosphorylation was further confirmed by immunoprecipitation using anti-phosphotyrosine (PY20) antibody (FIG. 2A, 3rd panel). […]

EGFR = EGFR phosphorylation in cells (immunoblotting); type: cell-based
Method: as §1, §2, §3

IR = IR (Homo sapiens, UniProt P06213); assay: Immunoblotting of IR phosphorylation and downstream signaling in CHO-IR cells; type: cell-based; design: expressed in transfected cells; host or cells: CHO (CHO-IR, gift from Dr. Nicholas Webster, UCSD)
Method: The cell lysates were analyzed by immunoblotting with anti-phospho-IR antibodies, or immunoprecipitated by PY20 and analyzed using anti-IR and anti-IRS-1, respectively. […] The cell lysates were analyzed by immunoblotting with anti-pIGF-1R and anti-pEGFR. […]
A cell-based ELISA assay was developed with an IR stably transfected Chinese Hamster Ovary (CHO-IR) cell line. […] The cell lysates were subjected to the sandwich ELISA using immobilized anti-phosphotyrosine antibody and anti-IR antibody.

3T3-L1 adipocytes = assay: Fatty acid oxidation assay; type: cell-based, mouse; conditions: 100 nM insulin or 5 μM 4524-E7; normalized to DMSO-treated cells
Method: (A) 4524-E7 activates IR phosphorylation and its downstream signaling in 3T3-L1 adipocytes. […] The cells were lysed, and immunoprecipitated with PY20, and followed by Western blot using specific antibodies. (B) 4524-E7 stimulates glucose uptake in 3T3-L1 adipocytes. […] [3H]2-deoxyglucose was added, and the cells were further incubated for 10 min. The amount of [3H]2-deoxyglucose taken by adipocytes was measured. (C) 4524-E7 inhibits fatty acid oxidation. […] Results were normalized to DMSO-treated cells and expressed as mean±S.E.M. (*: P<0.05; **:P<0.01, Student's t-test, n=3). (D) IR knockdown in adipocytes decreases IR signaling by 4524-E7. […] Cells lysates were collected and analyzed by Western blot. (E) The glucose uptake induced by 4524-E7 in p85α knockout MEF cells. […] The uptaken [3H] 2-deoxyglucose was monitored by liquid scintillation counter. Results were expressed as mean±S.E.M. (*: P<0.05; **:P<0.01, Student's t-test, n=3).
Fatty acid oxidation was measured by determining the production of 3H2O from [9, 10-3H] palmitate. Differentiated NIH3T3-L1 were plated (0.5×10^5 cell per well) in a 12-well plate for 1 day. […] After incubation, the medium was removed and extracted with Chloroform/Methanol (2:1), and the aqueous phase containing 3H2O was collected and used for radioactivity measurement in a liquid scintillation counter.

[1] = differentiated 3T3-L1 adipocytes

Sequence of IR (P06213 763-1382 limits assumed): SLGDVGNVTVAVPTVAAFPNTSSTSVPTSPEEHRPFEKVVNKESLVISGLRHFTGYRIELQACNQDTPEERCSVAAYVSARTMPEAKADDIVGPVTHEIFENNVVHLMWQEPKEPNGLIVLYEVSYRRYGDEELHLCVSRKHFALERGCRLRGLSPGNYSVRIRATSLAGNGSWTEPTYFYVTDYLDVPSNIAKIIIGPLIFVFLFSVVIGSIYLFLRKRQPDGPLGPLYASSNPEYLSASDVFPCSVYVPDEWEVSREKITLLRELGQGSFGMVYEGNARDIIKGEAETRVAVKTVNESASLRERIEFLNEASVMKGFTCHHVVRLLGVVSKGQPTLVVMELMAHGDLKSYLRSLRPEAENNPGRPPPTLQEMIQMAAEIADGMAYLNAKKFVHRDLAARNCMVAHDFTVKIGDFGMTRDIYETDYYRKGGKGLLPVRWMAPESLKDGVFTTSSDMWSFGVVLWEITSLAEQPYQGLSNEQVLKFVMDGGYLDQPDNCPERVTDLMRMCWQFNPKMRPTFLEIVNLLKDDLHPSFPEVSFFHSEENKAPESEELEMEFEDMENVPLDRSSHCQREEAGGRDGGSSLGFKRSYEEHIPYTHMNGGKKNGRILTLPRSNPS
Sequence of IR (P06213 28-758 limits assumed): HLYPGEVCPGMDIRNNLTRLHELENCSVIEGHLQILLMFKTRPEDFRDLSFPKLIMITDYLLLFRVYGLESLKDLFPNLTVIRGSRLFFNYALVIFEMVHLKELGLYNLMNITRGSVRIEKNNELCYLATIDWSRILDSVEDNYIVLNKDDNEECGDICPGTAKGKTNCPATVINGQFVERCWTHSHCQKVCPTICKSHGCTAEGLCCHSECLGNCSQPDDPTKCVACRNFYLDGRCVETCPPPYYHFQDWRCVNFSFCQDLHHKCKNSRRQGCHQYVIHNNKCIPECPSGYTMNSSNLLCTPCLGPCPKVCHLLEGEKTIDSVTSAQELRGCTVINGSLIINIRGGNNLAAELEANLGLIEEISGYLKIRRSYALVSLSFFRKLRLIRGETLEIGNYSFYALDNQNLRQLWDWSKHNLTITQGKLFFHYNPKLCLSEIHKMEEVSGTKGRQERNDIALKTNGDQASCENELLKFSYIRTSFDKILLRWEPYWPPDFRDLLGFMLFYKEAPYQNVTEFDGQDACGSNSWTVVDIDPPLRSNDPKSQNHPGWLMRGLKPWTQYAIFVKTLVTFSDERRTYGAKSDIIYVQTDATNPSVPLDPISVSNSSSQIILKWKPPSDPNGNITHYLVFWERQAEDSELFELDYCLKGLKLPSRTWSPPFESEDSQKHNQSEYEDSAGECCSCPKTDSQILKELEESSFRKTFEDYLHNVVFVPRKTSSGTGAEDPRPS

time at which IR phosphorylation starts (IR; 5 μM)	tyrosine phosphorylation of IRS-1 (IR; 5 μM, 15 min)	tyrosine phosphorylation of the IR β subunit in Y1146 and Y1158/1162/1163 (IR; 5 μM, 15 min)	concentration stimulating the IR signal cascades (IR; DDN or CSN 30 min, insulin 15 min)	concentration activating IR cascade strongly and specifically (IR)	IR tyrosine phosphorylation (IR; 5 μM, 30 min)	concentration at which Erk1/2 activation was detected (IR; 15 min)	concentration elevating Akt phosphorylation (IR; 15 min)	Compound	IGF-1R activation (IGF-1R; CHO-IGF-1R cells, 10 μM, 15 min)	EGFR activation (EGFR; HEK293 cells, 10 μM, 15 min)	lipid oxidation (3T3-L1 adipocytes)	IGF-1R activation (IGF-1R; IGF-1R-transfected HEK293 cells, 5 μM)	IGF-1R activation (IGF-1R; [1])	EGFR activation (EGFR; EGFR-transfected HEK293 cells, 5 μM)	EGFR activation (EGFR; [1])	tyrosine phosphorylation on the IR (IR; 5 μM, 15 min)
5 to 15 min and 5 min	also increased	strongly stimulated	5 µM	–	–	–	–	CC(=O)Oc1ccc(OC(C)=O)c2c1C(=O)C(Cl)=C(Cl)C2=O [DDN, 5,8-diacetyloxy-2,3-dichloro-1,4-naphthoquinone]	Neither IGF-1R nor EGFR was activated	Neither IGF-1R nor EGFR was activated	–	–	–	–	–	–
–	–	–	–	–	–	–	–	insulin: insulin, used as positive control	–	–	~70 % of the control	–	–	–	–	–
–	–	–	–	1 to 2.5 µM	triggered IR tyrosine phosphorylation	≥ 5 µM	0.5 µM	O=C1c2ccccc2C(=O)C2SC(Nc3ccc(Cl)cc3)=NC12 (centres unmarked) [4524-E7, 2-((4-chlorophenyl)amino)naphtho[2,3-d]thiazole-4,9(3aH,9aH)-dione]	–	–	~50 % of the control	not any other RTKs	neither IGF-1R nor EGFR was activated	not any other RTKs	neither IGF-1R nor EGFR was activated	increased the tyrosine phosphorylation on the IR
